# Assay results reported in ChEMBL document CHEMBL3885861, “Open TG-GATES”.
# Organism: Rattus norvegicus
# Assay: Open TG-GATES - Regimen: Daily Repeat
# Format: toxicity, organism-based, Sprague-Dawley
# Set-up: regimen Daily Repeat, gender Male, age 6 weeks
# Conditions: in vivo, po, 30 mg/kg, […], route gavage, dose level High; for KIDNEY_L / KIDNEY_R / KIDNEY_TOTAL: tissue Kidney; for LIVER: tissue Liver; for A/G / ALP / ALT / AST / BUN / CRE / Ca / Cl / DBIL / GLC / IP / K / LDH / Na / PL / RALB / TBIL / TC / TG / TP / gamma-GTP: tissue Plasma
smiles,measurement,setting,value
CN(C)CCC(c1ccc(Cl)cc1)c1ccccn1 (stereo unspecified) [CHLORPHENIRAMINE],Lym,"tissue Blood, time 28 day",80.6%
same,MCH,"tissue Blood, time 28 day",19 pg
same,MCHC,"tissue Blood, time 28 day",33.8%
same,MCV,"tissue Blood, time 28 day",56.2 fL
same,Mono,"tissue Blood, time 28 day",2.6%
same,Neu,"tissue Blood, time 28 day",14.8%
same,PT,"tissue Blood, time 28 day",15.1 s
same,Plat,"tissue Blood, time 28 day",110.6 x10_4/uL
same,RBC,"tissue Blood, time 28 day",834 x10_4/ul
same,Ret,"tissue Blood, time 28 day",2.2%
same,WBC,"tissue Blood, time 28 day",98.8 x10_2/uL
same,KIDNEY_L,time 7 day,1 g
same,KIDNEY_R,time 7 day,1 g
same,KIDNEY_TOTAL,time 7 day,2 g
same,KIDNEY_L,time 14 day,1.1 g
same,KIDNEY_R,time 14 day,1.1 g
same,KIDNEY_TOTAL,time 14 day,2.3 g
same,KIDNEY_L,time 28 day,1.5 g
same,KIDNEY_R,time 28 day,1.4 g
same,KIDNEY_TOTAL,time 28 day,2.9 g
same,LIVER,time 7 day,10.9 g
same,LIVER,time 14 day,12.6 g
same,LIVER,time 28 day,15.6 g
same,A/G,time 7 day,0.8
same,ALP,time 7 day,1512.4 IU/L
same,ALT,time 7 day,40.6 IU/L
same,AST,time 7 day,65 IU/L
same,BUN,time 7 day,16 mg/dL
same,CRE,time 7 day,0.2 mg/dL
same,Ca,time 7 day,11.3 mg/dL
same,Cl,time 7 day,106.2 meq/L
same,DBIL,time 7 day,0.012 mg/dL
same,GLC,time 7 day,185.6 mg/dL
same,IP,time 7 day,7.6 mg/dL
same,K,time 7 day,4.4 meq/L
same,LDH,time 7 day,112.2 IU/L
same,Na,time 7 day,141.6 meq/L
same,PL,time 7 day,163.6 mg/dL
same,RALB,time 7 day,2.6 g/dL
same,TBIL,time 7 day,0.028 mg/dL
same,TC,time 7 day,86.4 mg/dL
same,TG,time 7 day,117 mg/dL
same,TP,time 7 day,5.8 g/dL
same,gamma-GTP,time 7 day,1 IU/L
same,A/G,time 14 day,0.8
same,ALP,time 14 day,1415.4 IU/L
same,ALT,time 14 day,32.8 IU/L
same,AST,time 14 day,57.8 IU/L
same,BUN,time 14 day,15.4 mg/dL
same,CRE,time 14 day,0.2 mg/dL
same,Ca,time 14 day,11.1 mg/dL
same,Cl,time 14 day,105.8 meq/L
same,DBIL,time 14 day,0.012 mg/dL
same,GLC,time 14 day,190.6 mg/dL
same,IP,time 14 day,7.6 mg/dL
same,K,time 14 day,4.6 meq/L
same,LDH,time 14 day,122.4 IU/L
same,Na,time 14 day,141.8 meq/L
same,PL,time 14 day,155.8 mg/dL
same,RALB,time 14 day,2.8 g/dL
same,TBIL,time 14 day,0.03 mg/dL
same,TC,time 14 day,82.4 mg/dL
same,TG,time 14 day,121 mg/dL
same,TP,time 14 day,6 g/dL
same,gamma-GTP,time 14 day,1 IU/L
same,A/G,time 28 day,0.8
same,ALP,time 28 day,1092.6 IU/L
same,ALT,time 28 day,34 IU/L
same,AST,time 28 day,54.6 IU/L
same,BUN,time 28 day,16 mg/dL
same,CRE,time 28 day,0.2 mg/dL
same,Ca,time 28 day,10.7 mg/dL
same,Cl,time 28 day,105.6 meq/L
same,DBIL,time 28 day,0.014 mg/dL
same,GLC,time 28 day,184 mg/dL
same,IP,time 28 day,7.1 mg/dL
same,K,time 28 day,4.4 meq/L
same,LDH,time 28 day,92.8 IU/L
same,Na,time 28 day,144.2 meq/L
same,PL,time 28 day,150.2 mg/dL
same,RALB,time 28 day,2.8 g/dL
same,TBIL,time 28 day,0.03 mg/dL
same,TC,time 28 day,75.2 mg/dL
same,TG,time 28 day,148 mg/dL
same,TP,time 28 day,6.2 g/dL
same,gamma-GTP,time 28 day,1.2 IU/L
